IC50 data for 13 compounds are collected here from US10927111B2, “Inhibitors of RAF kinases” (Kinnate Biopharma Inc., priority 2019, dated 2021).

The structures appear in SMILES notation. Read-outs that look alike come from different tables or passages of the source.

The target in this assay is human RAF1 (Homo sapiens (Human), UniProt P04049). Kind of assay: Protein kinase assay (radiometric 33P-ATP, MEK1 (K97R) substrate). It is filed as biochemical. The settings on record: read-out: RAF-1 IC50. As to the method: Protein kinase assay: Assay platform was used to measure kinase/inhibitor interactions as described previously (Anastassiadis et al., 2011). In brief, for each reaction, kinase and substrate were mixed in a buffer containing 20 mM HEPES (pH 7.5), 10 mM MgCl2, 1 mM EGTA, 0.02% Brij35, 0.02 mg/mL BSA, 0.1 mM Na3VO4, 2 mM DTT, and 1% DMSO. All compounds were solubilized in DMSO. Compounds were then added to each reaction mixture via acoustic dispense using an ECHO 550 nanoliter dispenser. For human RAF1 testing, human MEK1 (K97R) was used as a substrate at a concentration of 3 micromolar, with a final ATP concentration of 10 micromolar. For human BRAF testing, human MEK1 (K97R) was used as a substrate at 1 micromolar concentration, with a final ATP concentration of 25 micromolar. […] After a 20-min incubation, ATP (Sigma-Aldrich, St. Louis, Mo. 63178) and [g33P] ATP (specific activity 10 microCi/microliter) purchased at PerkinElmer (Boston, Mass., 02118 Cat #BLU 003H250UC) were added at a final total concentration of 10 mM. Reactions were carried out at room temperature for 2 hr and spotted onto P81 ionexchange cellulose chromatography paper (Reaction Biology). Filter paper was washed in 0.75% phosphoric acid to remove unincorporated ATP. The percent remaining kinase activity relative to a vehicle-containing (DMSO) kinase reaction was calculated for each kinase/inhibitor pair. IC50 values were calculated using Prism 5 (GraphPad).

[1] abbreviates: human MEK1 (K97R) substrate 3 micromolar, ATP 10 micromolar, 10-dose IC50 mode.

As a reminder, the IC50 is the concentration that gives 50% inhibition.

human RAF1, sequence (P04049 whole entry): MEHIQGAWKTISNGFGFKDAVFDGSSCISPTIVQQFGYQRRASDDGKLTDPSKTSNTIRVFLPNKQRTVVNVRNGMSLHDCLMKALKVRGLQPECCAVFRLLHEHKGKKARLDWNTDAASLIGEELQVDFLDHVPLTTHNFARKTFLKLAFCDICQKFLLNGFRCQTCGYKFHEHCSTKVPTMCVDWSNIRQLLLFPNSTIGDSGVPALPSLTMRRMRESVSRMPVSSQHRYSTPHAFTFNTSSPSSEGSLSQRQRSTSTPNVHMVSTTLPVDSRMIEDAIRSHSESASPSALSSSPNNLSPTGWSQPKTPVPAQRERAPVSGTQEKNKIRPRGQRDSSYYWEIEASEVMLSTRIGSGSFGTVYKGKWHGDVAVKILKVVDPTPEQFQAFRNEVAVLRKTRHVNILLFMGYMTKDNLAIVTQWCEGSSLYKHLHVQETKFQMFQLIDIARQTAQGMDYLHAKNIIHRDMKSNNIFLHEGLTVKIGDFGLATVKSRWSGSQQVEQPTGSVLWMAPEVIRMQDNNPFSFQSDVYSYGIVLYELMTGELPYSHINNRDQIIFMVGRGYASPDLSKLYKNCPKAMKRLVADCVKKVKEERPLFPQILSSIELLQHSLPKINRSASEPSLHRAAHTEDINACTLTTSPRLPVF

`CNc1ncc2cc(-c3cc(NC(=O)c4cccc(C(F)(F)F)c4)cnc3C)c(C)nc2n1` [Example 44, N-(6-methyl-5-(7-methyl-2-(methylamino)pyrido[2,3-d]pyrimidin-6-yl)pyridin-3-yl)-3-(trifluoromethyl)benzamide]: the IC50 under setting [1] was ≤ 10 nM. On to `CNc1ncc2cc(-c3cc(NC(=O)c4ccnc(C(F)(F)F)c4)ccc3C)c(C#N)nc2n1` [Example 72, N-[3-[7-cyano-2-(methylamino)pyrido[2,3-d]pyrimidin-6-yl]-4-methylphenyl]-2-(trifluoromethyl)pyridine-4-carboxamide], for which the half-inhibitory concentration (IC50) under setting [1] was ≤ 10 nM. In the case of `CNc1ncc2cc(-c3cc(NC(=O)c4cccc(C(F)(F)F)c4)cnc3C)cnc2n1` [Example 45, N-(6-methyl-5-(2-(methylamino)pyrido[2,3-d]pyrimidin-6-yl)pyridin-3-yl)-3-(trifluoromethyl)benzamide], the IC50 under setting [1] is ≤ 10 nM.

In the case of `CNc1ncc2cc(-c3cc(NC(=O)N4CC[C@@H](CC(F)(F)F)C4)ccc3C)c(C)nc2n1` [Example 20, (S)-N-(4-methyl-3-(7-methyl-2-(methylamino)pyrido[2,3-d]pyrimidin-6-yl)phenyl)-3-(2,2,2-trifluoroethyl)pyrrolidine-1-carboxamide], under setting [1], the IC50 is ≤ 10 nM. On the same count and under the same terms, then `CNc1ncc2cc(-c3cc(NC(=O)N4CCO[C@H](C(F)(F)F)C4)ccc3C)c(C)nc2n1` [Example 13], with ≤ 10 nM.

In the case of `[2H]C([2H])([2H])c1nc2nc(NC)ncc2cc1-c1cc(NC(=O)c2ccnc(C(F)(F)F)c2)ccc1C` [Example 74, N-(4-methyl-3-(7-(methyl-d3)-2-(methylamino)pyrido[2,3-d]pyrimidin-6-yl)phenyl)-2-(trifluoromethyl)isonicotinamide], the IC50 was ≤ 10 nM.

Take `CNc1ncc2cc(-c3cc(NC(=O)N4CC[C@H](CC(F)(F)F)C4)ccc3C)c(C)nc2n1` [Example 19, (R)-N-(4-methyl-3-(7-methyl-2-(methylamino)pyrido[2,3-d]pyrimidin-6-yl)phenyl)-3-(2,2,2-trifluoroethyl)pyrrolidine-1-carboxamide]: the IC50 under setting [1] was ≤ 10 nM. As for `CNc1ncc2cc(-c3cc(NC(=O)N4CCO[C@@H](C(C)(C)C)C4)c(F)cc3C)c(C)nc2n1` [Example 23, (S)-2-(tert-butyl)-N-(2-fluoro-4-methyl-5-(7-methyl-2-(methylamino)pyrido[2,3-d]pyrimidin-6-yl)phenyl)morpholine-4-carboxamide], the IC50 is ≤ 10 nM.

Take `CCc1nc2nc(NC)ncc2cc1-c1cc(NC(=O)c2ccnc(C(F)(F)F)c2)ccc1C` [Example 36, N-(3-(7-ethyl-2-(methylamino)pyrido[2,3-d]pyrimidin-6-yl)-4-methylphenyl)-2-(trifluoromethyl)isonicotinamide]: the IC50 under setting [1] is ≤ 10 nM. On the same count and under the same terms, then `CNc1ncc2cc(-c3cc(NC(=O)N4CCO[C@H](C(F)(F)F)C4)c(F)cc3C)cnc2n1` [Example 61, (2S)-N-[2-fluoro-4-methyl-5-[2-(methylamino)pyrido[2,3-d]pyrimidin-6-yl]phenyl]-2-(trifluoromethyl)morpholine-4-carboxamide], with ≤ 10 nM.

Consider `CNc1ncc2cc(-c3cc(NC(=O)N4CC=C(C(F)(F)F)C4)ccc3C)c(C)nc2n1` [Example 16, N-(4-methyl-3-(7-methyl-2-(methylamino)pyrido[2,3-d]pyrimidin-6-yl)phenyl)-3-(trifluoromethyl)-2,5-dihydro-1H-pyrrole-1-carboxamide], for which, under setting [1], the IC50 was ≤ 10 nM. As for `CCOc1nc2nc(NC)ncc2cc1-c1cc(NC(=O)c2ccnc(C(F)(F)F)c2)ccc1C` [Example 69, N-[3-[7-ethoxy-2-(methylamino)pyrido[2,3-d]pyrimidin-6-yl]-4-methylphenyl]-2-(trifluoromethyl)pyridine-4-carboxamide], under setting [1], the IC50 is ≤ 10 nM. Consider `CNc1ncc2cc(-c3cc(NC(=O)N4CC[C@@H](C(F)(F)F)C4)c(F)cc3C)c(C)nc2n1` [Example 2, (R)-N-(2-fluoro-4-methyl-5-(7-methyl-2-(methylamino)pyrido[2,3-d]pyrimidin-6-yl)phenyl)-3-(trifluoromethyl)pyrrolidine-1-carboxamide], for which the IC50 under setting [1] was ≤ 10 nM.
